Experimental data as given in PubChem BioAssay AID2060900 (Molecular Pharmacology Branch, DTP, NCI, 2025).

Tested on: 521955-158-R2-J5-PDC complex spheroids, viability
Assay: Anticancer human tumor 521955-158-R2-J5-PDC patient-derived pancreatic carcinoma cell line growth inhibition [RAS]
Conditions: for IC50: curve of first compound; for viability, T/C: stronger effect = lower value
Text: RAS pathway inhibitors in Combinations in Complex Spheroids
A high-throughput screen of multi-cell type tumor spheroids was designed to identify active combinations of RAS pathway inhibitors and targeted small molecules. Complex spheroids include a stromal component modeled by human endothelial cells (HUVEC) and fibroblasts modeled by human mesenchymal stem cells (MSCs). The concentration ranges selected for each drug and investigational agent were based upon clinically achievable concentrations if the clinical Cmax of the agent was known.
Compounds. The drugs and investigational agents: abemaciclib (NSC768073), cobimetinib (NSC768068), divarasib (GDC6063, NSC841802), docetaxel (NSC628503), GDC-1971 (RLY-1971, NSC841576), gemcitabine (NSC613327), inavolisib (NSC800729), ipatasertib (NSC767898), KB-0742 (NSC834161), MRTX-1133 (NSC836407), osimertinib (NSC779217), RMC-4630 (NSC839698), RMC-6236 (NSC851965), RMC-6291 (NSC852671), Ro-3306 (NSC812927), sapanisertib (NSC764658), SN-38 (NSC673596), staurosporine (NSC755774), SY5609 (NSC837396), and tovorafenib (DAY101, NSC766906), were obtained from the National Cancer Institute (NCI) Developmental Therapeutics Program Chemical Repository. The FDA-approved anticancer drug set is available from the NCI Developmental Therapeutics Program. […] The stock solutions were prepared in dimethyl sulfoxide (DMSO, Sigma-Aldrich, St. Louis, MO, cat. D2650) at 800-fold the tested concentration and stored at -70 degrees C prior to their use. All drugs and investigational agents were tested over a range starting from a high concentration at or near the clinical Cmax and decreasing in half-log increments. If the clinical Cmax for an agent had not been determined, the highest concentration tested was 10 microM.
Cell Culture. All cells were maintained in an incubator at 37 degrees C and 5% CO2 with 95% humidity. The PDC lines were cultured according to standard operating procedures established by the NCI PDMR. All PDCs were thawed and cultured in Matrigel-coated flasks prepared with a working solution of 1X Ham's F-12 nutrient mix, without supplementation (Invitrogen, Waltham, MA, cat. 11765054), 100 U/mL penicillin-streptomycin (Invitrogen, cat. 15140122), and 2.5% Matrigel (Corning Inc., Corning, NY, cat. 354248) for the first three passages. The 362531-283-R-J2-PDC and 782815-120-R-J1-PDC lines were cultured in 6C/Colon 1B media, which includes advanced DMEM/F-12 (Thermo Fisher Scientific, cat. 12634028), 10 mM HEPES (Thermo Fisher Scientific, cat. 15630080), 1X GlutaMAX supplement (Thermo Fisher Scientific, cat. 35050061), 0.1 mg/mL primocin (InvivoGen, San Diego, CA, cat. ant-pm-2), 10% defined fetal bovine serum, heat inactivated (HyClone Laboratories Inc., Logan, UT, cat. SH30070.03HI), 50% L-WRN conditioned media (ATCC, cat. CRL-3276), 1.25 mM N-Acetyl-L-cysteine (Sigma-Aldrich, cat. A9165), 10 mM nicotinamide (Sigma-Aldrich, cat. N0636), 1X B-27 supplement (Thermo Fisher Scientific, cat. 17504044), 1X N-2 supplement (Thermo Fisher Scientific, cat. 17502048), 50 ng/mL human EGF (Thermo Fisher Scientific, cat. PHG0311), and 10 microM Y-27632 dihydrochloride (Tocris Bioscience, cat. 1254). The K12877-001-R-J1-PDC line was cultured in 6I media, which includes all 6C/Colon 1B media plus 10 ng/mL human FGF-10 (PeproTech, cat. 100-26), 1 ng/mL human FGF-2 (PeproTech, cat. 100-18B), 1 µM prostaglandin E2 (Tocris Bioscience, cat. 2296), […] hydrocortisone (Sigma-Aldrich, cat. H4001), and […] bovine insulin (Sigma-Aldrich, cat. I6634). The K86415-001-R-J1-PDC line was cultured in 6D media, which includes all 6C/Colon 1B media components minus the L-WRN conditioned media. The 485176-168-R4-J1-PDC was cultured in PANC media, which includes all 6C/Colon 1B media plus 100 ng/mL human FGF-10 (PeproTech, cat. 100-26), 500 nM SB-431542 (Selleckchem, cat. S1067), and 10 nM gastrin (Tocris Bioscience, cat. 3006). […]

[1] = second compound 0.00316 µM, first compound 0.000949 µM
[2] = second compound 0.00316 µM, first compound 0.003 µM
[3] = second compound 0.00316 µM, first compound 0.00949 µM
[4] = second compound 0.00316 µM, first compound 0.03 µM
[5] = second compound 0.00316 µM, first compound 0.0949 µM
[6] = second compound 0.00316 µM, first compound 0.3 µM
[7] = second compound 0.01 µM, first compound 0.000949 µM
[8] = second compound 0.01 µM, first compound 0.003 µM
[9] = second compound 0.01 µM, first compound 0.00949 µM
[10] = second compound 0.01 µM, first compound 0.03 µM
[11] = second compound 0.01 µM, first compound 0.0949 µM
[12] = second compound 0.01 µM, first compound 0.3 µM
[13] = second compound 0.0316 µM, first compound 0.000949 µM
[14] = second compound 0.0316 µM, first compound 0.003 µM
[15] = second compound 0.0316 µM, first compound 0.00949 µM
[16] = second compound 0.0316 µM, first compound 0.03 µM
[17] = second compound 0.0316 µM, first compound 0.0949 µM
[18] = second compound 0.0316 µM, first compound 0.3 µM
[19] = second compound 0.1 µM, first compound 0.000949 µM
[20] = second compound 0.1 µM, first compound 0.003 µM
[21] = second compound 0.1 µM, first compound 0.00949 µM
[22] = second compound 0.1 µM, first compound 0.03 µM
[23] = second compound 0.1 µM, first compound 0.0949 µM
[24] = second compound 0.1 µM, first compound 0.3 µM
[25] = second compound 0.316 µM, first compound 0.000949 µM
[26] = second compound 0.316 µM, first compound 0.003 µM
[27] = second compound 0.316 µM, first compound 0.00949 µM
[28] = second compound 0.316 µM, first compound 0.03 µM
[29] = second compound 0.316 µM, first compound 0.0949 µM
[30] = second compound 0.316 µM, first compound 0.3 µM
[31] = second compound 1 µM, first compound 0.000949 µM
[32] = second compound 1 µM, first compound 0.003 µM
[33] = second compound 1 µM, first compound 0.00949 µM
[34] = second compound 1 µM, first compound 0.03 µM
[35] = second compound 1 µM, first compound 0.0949 µM
[36] = second compound 1 µM, first compound 0.3 µM
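Further: compound exposure lasted seven days before the viability read.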
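Wherever viability, T/C is given: spheroids also contain HUVEC endothelial cells and mesenchymal stem cells as stroma.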

Work on CCc1c2c(nc3ccc(O)cc13)-c1cc3c(c(=O)n1C2)COC(=O)[C@]3(O)CC + C=CC(=O)N1CCN(c2nc(OCC3CCCN3C)nc3c(F)c(-c4nc(N)cc(C)c4C(F)(F)F)c(Cl)cc23)C(C)C1 yielded an IC50 (second compound 0.00316 µM) of 2.29 nM, an IC50 (second compound 0.01 µM) of 2.37 nM and an IC50 (second compound 0.0316 µM) of 3.47 nM. For the same molecule, the IC50 (second compound 0.1 µM) was 2.5 nM, the IC50 (second compound 0.316 µM) was 2.21 nM and the IC50 (second compound 1 µM) was 2.82 nM. The viability, T/C [1] was 82.8%, the viability, T/C [2] was 39.5% and the viability, T/C [3] was 20.3%. It also gave a viability, T/C [4] of 7.87%, a viability, T/C [5] of 6.75% and a viability, T/C [6] of 6.61%. It also gave a viability, T/C [7] of 68.7%, a viability, T/C [8] of 45.3% and a viability, T/C [9] of 18.4%. It also gave a viability, T/C [10] of 8.97%, a viability, T/C [11] of 8.82% and a viability, T/C [12] of 4.69%. It also gave a viability, T/C [13] of 72.5%, a viability, T/C [14] of 55.2% and a viability, T/C [15] of 13.7%. The viability, T/C [16] was 11.2%, the viability, T/C [17] was 8.98% and the viability, T/C [18] was 5.11%. The viability, T/C [19] was 63%, the viability, T/C [20] was 47.7% and the viability, T/C [21] was 15.2%. The viability, T/C [22] was 9.23%, the viability, T/C [23] was 6.92% and the viability, T/C [24] was 5.21%. The viability, T/C [25] was 83.2%, the viability, T/C [26] was 38% and the viability, T/C [27] was 13%. The viability, T/C [28] was 6.67%, the viability, T/C [29] was 7.68% and the viability, T/C [30] was 4.95%. The viability, T/C [31] was 84.2%, the viability, T/C [32] was 48.2% and the viability, T/C [33] was 13.4%. For the same molecule, the viability, T/C [34] was 9.97%, the viability, T/C [35] was 6.39% and the viability, T/C [36] was 4.12%.

With CC1(C)CCC(Nc2ncc(C(F)(F)F)c(-c3c[nH]c4c(P(C)(C)=O)c(C#N)ccc34)n2)CN1 (centres undefined) + C=CC(=O)N1CCN(c2nc(OCC3CCCN3C)nc3c(F)c(-c4nc(N)cc(C)c4C(F)(F)F)c(Cl)cc23)C(C)C1 the IC50 (second compound 0.00316 µM) was > 300 nM, the IC50 (second compound 0.01 µM) was > 300 nM and the IC50 (second compound 0.0316 µM) was > 300 nM. The IC50 (second compound 0.1 µM) was > 300 nM, the IC50 (second compound 0.316 µM) was > 300 nM and the IC50 (second compound 1 µM) was > 300 nM. For the same molecule, the viability, T/C [1] was 80.7%, the viability, T/C [2] was 73.7% and the viability, T/C [3] was 67.7%. The viability, T/C [4] was 51.1%, the viability, T/C [5] was 49.5% and the viability, T/C [6] was 53.3%. For the same molecule, the viability, T/C [7] was 81.2%, the viability, T/C [8] was 78.5% and the viability, T/C [9] was 52.6%. It also gave a viability, T/C [10] of 53%, a viability, T/C [11] of 58.3% and a viability, T/C [12] of 60.4%. The viability, T/C [13] was 75.4%, the viability, T/C [14] was 78.7% and the viability, T/C [15] was 57.5%. It also gave a viability, T/C [16] of 55.8%, a viability, T/C [17] of 73% and a viability, T/C [18] of 53.8%. For the same molecule, the viability, T/C [19] was 90%, the viability, T/C [20] was 86.3% and the viability, T/C [21] was 57.9%. It also gave a viability, T/C [22] of 64.2%, a viability, T/C [23] of 65.8% and a viability, T/C [24] of 56.9%. It also gave a viability, T/C [25] of 84.5%, a viability, T/C [26] of 76.5% and a viability, T/C [27] of 51.3%. The viability, T/C [28] was 65.3%, the viability, T/C [29] was 67% and the viability, T/C [30] was 49.2%. It also gave a viability, T/C [31] of 106%, a viability, T/C [32] of 77.5% and a viability, T/C [33] of 56.3%. It also gave a viability, T/C [34] of 51.9%, a viability, T/C [35] of 63.9% and a viability, T/C [36] of 55.4%.
